Where two headings read alike, the source gives them in different places.
Columns and labels:
Potassium channel = biological target: T1, Potassium channel (Rattus norvegicus, UniProt Q63563); test: Potassium channel activating action: relaxation of KCl-contracted rat aorta spiral specimen; details: for inhibition at 10 µM: 10^-5 mol; for inhibition at 1 µM: 10^-6 mol; for inhibition at 0.1 µM: 10^-7 mol
T1 construct: was extracted and formed into a spiral specimen; from tissue; host or cells: aorta of male Wistar rat (spiral strip)
Protocol: The aorta of a male Wister rat having a body weight of about 240 g was extracted and formed into a spiral specimen, which was suspended under a load of 0.5 g in a Krebs.Henselate solution (37° C.) saturated with a gas mixture of 95% oxygen+5% carbon dioxide. Then, 20 mM or 60 mM potassium chloride was added thereto, and the contraction reaction was measured by means of an isometric transducer (manufactured by Nippon Koden K.K.). When the contraction reaction by potassium chloride reached the maximum, a compound of the present invention was cumulatively added, whereupon the relaxation reaction was measured. The relaxation reaction due to the drug was determined as a relaxation rate relative to the maximum contraction by potassium chloride.

[1] = Acute toxicity test (oral); details: mouse, in vivo, male mice, mortality after 72 hours
Protocol: For an acute toxicity test, ten male mice with body weights of 22 to 25 g were used as one group, and a compound of the present invention was orally administered at a dose corresponding to the body weight. From the mortality after 72 hours, LD50 was calculated by an area method.

[2] = tested on: spontaneously hypertensive rat (SHR); test: Blood pressure lowering activity in spontaneously hypertensive rats (oral); type: in vivo
Protocol: A male spontaneously hypertensive rat (SHR) of 20 weeks old was put in a cage and heated in a heating box at 45° C. for 5 minutes. SHR heated for 5 minutes was fixed to a measuring board, and a cuff for pressurizing and for blood pressure measurement was attached to the tail. As the pressurizing started, the heart rate was measured. After the rat became quiet, the maximum blood pressure was measured.
On the other hand, a compound of the present invention was dissolved or suspended in a 0.5% methyl cellulose solution and orally administered. Then, the blood pressure was measured upon expiration of 1 hour, 3 hours and 6 hours after the administration. [formula]

[3] = 20 mM KCl, read-out: Relaxation rate (%) in 20 mM KCl
[4] = 60 mM KCl, read-out: Relaxation rate (%) in 60 mM KCl

T1 sequence (Q63563 1-1545 isoform Q63563-2): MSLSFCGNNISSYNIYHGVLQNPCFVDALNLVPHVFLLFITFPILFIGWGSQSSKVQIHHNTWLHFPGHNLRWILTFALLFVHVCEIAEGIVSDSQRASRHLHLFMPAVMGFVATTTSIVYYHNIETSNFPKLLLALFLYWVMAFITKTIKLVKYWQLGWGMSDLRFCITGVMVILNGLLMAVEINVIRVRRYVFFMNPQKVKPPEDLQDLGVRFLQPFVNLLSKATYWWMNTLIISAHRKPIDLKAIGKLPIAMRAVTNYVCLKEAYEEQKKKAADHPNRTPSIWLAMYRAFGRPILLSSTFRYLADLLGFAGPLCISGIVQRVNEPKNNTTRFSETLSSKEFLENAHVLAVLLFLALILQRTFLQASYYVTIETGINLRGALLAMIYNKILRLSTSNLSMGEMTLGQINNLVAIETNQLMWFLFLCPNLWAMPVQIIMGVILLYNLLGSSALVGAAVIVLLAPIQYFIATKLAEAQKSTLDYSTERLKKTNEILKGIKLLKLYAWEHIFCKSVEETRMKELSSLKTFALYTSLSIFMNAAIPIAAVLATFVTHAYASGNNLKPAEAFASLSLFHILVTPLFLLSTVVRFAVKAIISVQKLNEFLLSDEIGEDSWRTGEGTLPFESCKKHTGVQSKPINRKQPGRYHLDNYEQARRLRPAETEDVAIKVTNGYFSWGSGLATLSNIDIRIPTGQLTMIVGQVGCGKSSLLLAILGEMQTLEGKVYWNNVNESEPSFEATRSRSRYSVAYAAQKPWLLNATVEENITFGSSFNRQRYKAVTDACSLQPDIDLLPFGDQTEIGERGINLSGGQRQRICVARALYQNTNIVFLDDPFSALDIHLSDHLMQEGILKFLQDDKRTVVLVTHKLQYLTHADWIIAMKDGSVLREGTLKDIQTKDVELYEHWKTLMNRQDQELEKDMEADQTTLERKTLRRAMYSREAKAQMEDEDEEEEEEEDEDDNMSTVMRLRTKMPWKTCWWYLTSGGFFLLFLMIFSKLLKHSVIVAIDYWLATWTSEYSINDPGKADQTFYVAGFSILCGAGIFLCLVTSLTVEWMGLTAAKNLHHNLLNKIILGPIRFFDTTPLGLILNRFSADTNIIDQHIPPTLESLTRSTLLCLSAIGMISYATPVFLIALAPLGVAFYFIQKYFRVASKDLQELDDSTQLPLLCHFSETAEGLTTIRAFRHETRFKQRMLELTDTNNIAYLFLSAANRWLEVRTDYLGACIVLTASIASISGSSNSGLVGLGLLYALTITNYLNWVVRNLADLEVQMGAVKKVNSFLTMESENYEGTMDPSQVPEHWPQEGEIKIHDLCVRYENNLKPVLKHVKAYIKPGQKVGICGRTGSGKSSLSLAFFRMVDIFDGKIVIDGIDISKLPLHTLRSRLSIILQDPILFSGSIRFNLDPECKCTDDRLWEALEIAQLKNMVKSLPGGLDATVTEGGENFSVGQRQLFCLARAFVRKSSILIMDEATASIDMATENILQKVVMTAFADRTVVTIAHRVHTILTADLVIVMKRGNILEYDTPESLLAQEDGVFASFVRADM
T1 sequence (Q63664 whole entry partner): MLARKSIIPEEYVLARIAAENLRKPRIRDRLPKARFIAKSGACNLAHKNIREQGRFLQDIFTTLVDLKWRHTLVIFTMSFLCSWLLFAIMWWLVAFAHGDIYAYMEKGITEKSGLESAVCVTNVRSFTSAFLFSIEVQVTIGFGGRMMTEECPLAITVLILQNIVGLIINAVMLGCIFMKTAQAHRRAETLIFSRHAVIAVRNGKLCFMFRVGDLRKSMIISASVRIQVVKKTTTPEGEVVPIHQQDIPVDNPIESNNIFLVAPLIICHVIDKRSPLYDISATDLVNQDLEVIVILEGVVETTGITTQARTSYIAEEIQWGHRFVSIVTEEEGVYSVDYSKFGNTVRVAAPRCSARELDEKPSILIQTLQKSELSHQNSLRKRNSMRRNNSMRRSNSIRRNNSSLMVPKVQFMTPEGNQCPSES

| Structure (SMILES) | inhibition at 10 µM (Potassium channel; [3]) [%] | inhibition at 1 µM (Potassium channel; [3]) [%] | inhibition at 0.1 µM (Potassium channel; [3]) [%] | inhibition at 0.01 µM (Potassium channel; [3]) [%] | inhibition at 10 µM (Potassium channel; [4]) [%] | inhibition at 1 µM (Potassium channel; [4]) [%] | inhibition at 0.1 µM (Potassium channel; [4]) [%] | inhibition at 0.01 µM (Potassium channel; [4]) [%] | LD50 at 72 h [1] [mg/kg] | Change (%) from the value before administration ([2]; 0.1 mg/kg, 1 hr later) [%] | Change (%) from the value before administration ([2]; 0.1 mg/kg, 3 hrs later) [%] | Change (%) from the value before administration ([2]; 0.1 mg/kg, 6 hrs later) [%] | Change (%) from the value before administration ([2]; 0.3 mg/kg, 1 hr later) [%] | Change (%) from the value before administration ([2]; 0.3 mg/kg, 3 hrs later) [%] | Change (%) from the value before administration ([2]; 3 mg/kg, 1 hr later) [%] | Change (%) from the value before administration ([2]; 3 mg/kg, 3 hrs later) [%] | Change (%) from the value before administration ([2]; 3 mg/kg, 6 hrs later) [%] | Change (%) from the value before administration ([2]; 10 mg/kg, 1 hr later) [%] | Change (%) from the value before administration ([2]; 10 mg/kg, 3 hrs later) [%] | Change (%) from the value before administration ([2]; 10 mg/kg, 6 hrs later) [%] | also measured |
| --- | --- | --- | --- | --- | --- | --- | --- | --- | --- | --- | --- | --- | --- | --- | --- | --- | --- | --- | --- | --- | --- |
| CC(=NC#N)N[C@@H]1c2cc(C#N)ccc2OC(C)(C)[C@H]1O (relative stereo) [Example 2, 6-cyano-3,4-dihydro-2,2-dimethyl-trans-4-[(N-cyano-acetimidoyl)amino]-2H-benzo[b]pyran-3-ol] | 100 | 95.6 | 30.6 | 6.8 | 5.6 | 1 | 0 | 0 | ≥ 2000 | 10 | 5 | 0 | 26 | 17 | 60 | 56 | 58 | 64 | 61 | 61 | Change (%) from the value before administration ([2]; 0.3 mg/kg, 6 hrs later): 12%; Change (%) from the value before administration ([2]; 1 mg/kg, 1 hr later): 42%; Change (%) from the value before administration ([2]; 1 mg/kg, 3 hrs later): 45%; Change (%) from the value before administration ([2]; 1 mg/kg, 6 hrs later): 26% |
| CC(=NC#N)NC1=CC(C)(C)Oc2ccc(C#N)cc21 [Example 34, 6-cyano-2,2-dimethyl-4-[(N-cyano-acetimidoyl)amino]-2H-benzo[b]pyran] | 100 | 100 | 94.3 | 28.7 | 21.8 | 13.2 | 4.5 | 0 | ≥ 2000 | 12 | 5 | 0 | 41 | 45 | 65 | 63 | 63 | 64 | 64 | 65 | Change (%) from the value before administration ([2]; 0.3 mg/kg, 6 hrs later): 23%; Change (%) from the value before administration ([2]; 1 mg/kg, 1 hr later): 62%; Change (%) from the value before administration ([2]; 1 mg/kg, 3 hrs later): 60%; Change (%) from the value before administration ([2]; 1 mg/kg, 6 hrs later): 57% |
| COC(=O)C1=C(C)NC(C)=C(C(=O)OCCN(C)Cc2ccccc2)C1c1cccc([N+](=O)[O-])c1 (stereo not drawn) [Nicardipin, reference compound] | – | – | – | – | – | – | – | – | – | – | – | – | – | – | 20 | 8 | 0 | 40 | 9 | 7 | – |

— patent US5095016A, “Benzopyran compounds, processes for their production and pharmaceutical compositions” (Kaken Pharmaceutical Co., Ltd., priority 1989, dated 1992)
